Assays:
Cbl-b [1] = target: T1, Cbl-b (Homo sapiens, UniProt Q13191); test: Cbl-b Degradation Method A (FACS, anti-Cbl-b antibody staining); format: cell-based; conditions: Cbl-b-HiBit KI Jurkat Cells, incubated at least 20 hours; for DC50: half maximal degradation, read-out: Cbl-b Degredation Method A IC50; for Dmax: Jurkat, maximum degradation observed, read-out: Cbl-b Degredation Method A Dmax (%)
T1 construct: Cbl-b-HiBit KI Jurkat Cells were purchased from Promega; host or cells: Cbl-b-HiBiT knock-in Jurkat cells
Summary of the method: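 Readout is flow cytometry of fixed, permeabilized cells immunostained for Cbl-b (primary 1:200, AF488 secondary). Cells were Cbl-b-HiBit knock-in Jurkat, exposed to compound ≥20 h at 37 °C; half-maximal degradation concentration (DC50) and maximal degradation (Dmax) calculated relative to control.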

Cbl-b [2] = target: T1, Cbl-b; test: Cbl-b Degradation Method B (Nano-Glo HiBiT lytic detection); format: cell-based; conditions: Cbl-b-HiBit KI Jurkat Cells, incubated at least 6-24 hours; for DC50: half maximal degradation, read-out: Cbl-b Degredation Method B IC50; for Cbl-b Degredation Method B Dmax (%) / Dmax: maximum degradation observed; for Dmax: read-out: Cbl-b Degredation Method B Dmax (%)
Summary of the method: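 An 11-point, 3-fold compound dilution was applied for 6-24 hours to Jurkat cells carrying HiBiT-tagged endogenous Cbl-b. Lytic HiBiT luminescence quantified residual protein. Outputs are DC50 and Dmax relative to DMSO control.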

T1 sequence (Q13191 whole entry): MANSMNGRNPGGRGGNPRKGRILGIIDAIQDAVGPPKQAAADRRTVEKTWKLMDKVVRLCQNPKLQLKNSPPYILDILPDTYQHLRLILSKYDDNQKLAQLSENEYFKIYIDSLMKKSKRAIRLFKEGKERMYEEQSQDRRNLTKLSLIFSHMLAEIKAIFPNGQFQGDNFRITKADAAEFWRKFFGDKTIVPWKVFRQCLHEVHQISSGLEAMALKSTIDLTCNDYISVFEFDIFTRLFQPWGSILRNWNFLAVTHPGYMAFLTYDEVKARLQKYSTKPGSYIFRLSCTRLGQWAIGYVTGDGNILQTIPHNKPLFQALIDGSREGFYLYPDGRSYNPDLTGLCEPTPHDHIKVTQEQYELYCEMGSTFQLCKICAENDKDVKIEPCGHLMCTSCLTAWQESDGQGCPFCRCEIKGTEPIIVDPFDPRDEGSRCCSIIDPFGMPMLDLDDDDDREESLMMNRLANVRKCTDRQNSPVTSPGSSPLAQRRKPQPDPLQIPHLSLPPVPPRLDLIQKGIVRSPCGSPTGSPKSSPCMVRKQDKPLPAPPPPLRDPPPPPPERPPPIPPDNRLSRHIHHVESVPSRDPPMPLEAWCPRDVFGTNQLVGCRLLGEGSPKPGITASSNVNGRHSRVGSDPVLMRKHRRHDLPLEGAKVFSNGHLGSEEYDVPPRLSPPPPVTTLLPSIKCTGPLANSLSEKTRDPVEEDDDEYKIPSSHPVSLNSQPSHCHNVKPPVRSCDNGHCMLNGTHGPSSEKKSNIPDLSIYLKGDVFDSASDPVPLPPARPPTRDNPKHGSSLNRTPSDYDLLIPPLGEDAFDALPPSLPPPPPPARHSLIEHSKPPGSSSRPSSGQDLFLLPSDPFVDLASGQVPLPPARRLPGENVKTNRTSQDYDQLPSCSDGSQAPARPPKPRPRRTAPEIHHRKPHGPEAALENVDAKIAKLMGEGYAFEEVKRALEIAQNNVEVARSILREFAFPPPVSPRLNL

Structure (SMILES)	DC50 (Cbl-b [1]) [nM]	DC50 (Cbl-b [2]) [nM]	Dmax (Cbl-b [1]) [%]	Cbl-b Degredation Method B Dmax (%) (Cbl-b [2])	Dmax (Cbl-b [2]) [%]
Cn1cnnc1CC1(c2cccc(N3Cc4c(cc(CN5CCC(CN6CCC7(CC6)CCN(c6ccc8c(c6)C(=O)N(C6CCC(=O)NC6=O)C8=O)CC7)CC5)cc4C(F)(F)F)C3=O)c2)COC1 (stereo not drawn) [Example 29, 2-(2,6-dioxopiperidin-3-yl)-5-{9-[(1-{[2-(3-{3-[(4-methyl-4H-1,2,4-triazol-3-yl)methyl]oxetan-3-yl}phenyl)-3-oxo-7-(trifluoromethyl)-2,3-dihydro-1H-isoindol-5-yl]methyl}piperidin-4-yl)methyl]-3,9-diazaspiro[5.5]undecan-3-yl}-2,3-dihydro-1H-isoindole-1,3-dione]	> 500	> 500			
Cn1cnnc1CC1(c2cccc(N3Cc4c(cc(CN5CCN(C[C@H]6CC[C@H](OC7CCN(c8cccc9c8ncn9C8CCC(=O)NC8=O)CC7)CC6)CC5(C)C)cc4C(F)(F)F)C3=O)c2)CC(C#N)C1 (stereo partly drawn) [Example 314, (1r**,3r**)-3-(3-{6-[(2,2-dimethyl-4-{[(1r*,4r*)-4-({1-[1-(2,6-dioxopiperidin-3-yl)-1H-1,3-benzodiazol-4-yl]piperidin-4-yl}oxy)cyclohexyl]methyl}piperazin-1-yl)methyl]-1-oxo-4-(trifluoromethyl)-2,3-dihydro-1H-isoindol-2-yl}phenyl)-3-[(4-methyl-4H-1,2,4-triazol-3-yl)methyl]cyclobutane-1-carbonitrile]	5 to 50	50 to 500	35 to 70	B (35 < B < 70)	
Cn1cnnc1CC1(c2cccc(N3Cc4c(cc(N5CC6(CCN(c7ccc8c(c7)C(=O)N(C7CCC(=O)NC7=O)C8=O)C6)C5)cc4C(F)(F)F)C3=O)c2)COC1 (stereo not drawn) [Example 126, 2-(2,6-dioxopiperidin-3-yl)-5-{2-[2-(3-{3-[(4-methyl-4H-1,2,4-triazol-3-yl)methyl]oxetan-3-yl}phenyl)-3-oxo-7-(trifluoromethyl)-2,3-dihydro-1H-isoindol-5-yl]-2,6-diazaspiro[3.4]octan-6-yl}-2,3-dihydro-1H-isoindole-1,3-dione]	> 500	> 500			
C[C@H]1C[C@@H](CN2CCC(CC3CCN(c4ccc5c(c4)C(=O)N(C4CCC(=O)NC4=O)C5=O)CC3)CC2)CN(Cc2cc3c(c(C(F)(F)F)c2)CN(c2cccc(C4(Cc5nncn5C)COC4)c2)C3=O)C1 (stereo partly drawn) [Example 93, 2-(2,6-dioxopiperidin-3-yl)-5-{4-[(1-{[(3S,5S)-5-methyl-1-{[2-(3-{3-[(4-methyl-4H-1,2,4-triazol-3-yl)methyl]oxetan-3-yl}phenyl)-3-oxo-7-(trifluoromethyl)-2,3-dihydro-1H-isoindol-5-yl]methyl}piperidin-3-yl]methyl}piperidin-4-yl)methyl]piperidin-1-yl}-2,3-dihydro-1H-isoindole-1,3-dione]	5 to 50	< 5	35 to 70		< 35
Cn1cnnc1CC1(c2cccc(N3Cc4c(cc(N5CC6(CCN(CC7CCN(c8ccc9c(c8)C(=O)N(C8CCC(=O)NC8=O)C9=O)CC7)CC6)C5)cc4C(F)(F)F)C3=O)c2)COC1 (stereo not drawn) [Example 115, 2-(2,6-dioxopiperidin-3-yl)-5-[4-({2-[2-(3-{3-[(4-methyl-4H-1,2,4-triazol-3-yl)methyl]oxetan-3-yl}phenyl)-3-oxo-7-(trifluoromethyl)-2,3-dihydro-1H-isoindol-5-yl]-2,7-diazaspiro[3.5]nonan-7-yl}methyl)piperidin-1-yl]-2,3-dihydro-1H-isoindole-1,3-dione]	5 to 50	5 to 50	35 to 70		35 to 70
CC1c2nc(N3CCC(OC4CCC(CN5CCN(Cc6cc7c(c(C(F)(F)F)c6)CN(c6cccc(C8(Cc9nncn9C)COC8)c6)C7=O)C[C@H]5C)CC4)CC3)ccc2C(=O)N1C1CCC(=O)NC1=O (stereo partly drawn) [Example 238, 3-[7-methyl-5-oxo-2-(4-{[(1rs,4rs)-4-{[(2R)-2-methyl-4-{[2-(3-{3-[(4-methyl-4H-1,2,4-triazol-3-yl)methyl]oxetan-3-yl}phenyl)-3-oxo-7-(trifluoromethyl)-2,3-dihydro-1H-isoindol-5-yl]methyl}piperazin-1-yl]methyl}cyclohexyl]oxy}piperidin-1-yl)-5H,6H,7H-pyrrolo[3,4-b]pyridin-6-yl]piperidine-2,6-dione]	5 to 50	< 5	35 to 70		35 to 70
CC1c2nc(N3CCC(O[C@H]4CC[C@H](CN5CCN(Cc6cc7c(c(C(F)(F)F)c6)CN(c6cccc(C8(c9nncn9C)CCO8)c6)C7=O)C(C)(C)C5)CC4)CC3)ccc2C(=O)N1C1CCC(=O)NC1=O (stereo partly drawn) [Example 281, 3-[7-methyl-5-oxo-2-(4-{[(1r, 4r)-4-({3,3-dimethyl-4-[(2-{3-[2-(4-methyl-4H-1,2,4-triazol-3-yl)oxetan-2-yl]phenyl}-3-oxo-7-(trifluoromethyl)-2,3-dihydro-1H-isoindol-5-yl)methyl]piperazin-1-yl}methyl)cyclohexyl]oxy}piperidin-1-yl)-5H, 6H, 7H-pyrrolo[3,4-b]pyridin-6-yl]piperidine-2,6-dione]	5 to 50	< 5	35 to 70	C (C ≤ 35)	
CC1c2nc(N3CCC(O[C@H]4CC[C@H](CN5CCN(Cc6cc7c(c(C(F)(F)F)c6)CN(c6cccc([C@]8(Cc9nncn9C)C[C@@H](C#N)C8)c6)C7=O)CC5)CC4)CC3)ccc2C(=O)N1C1CCC(=O)NC1=O (stereo partly drawn) [Example 203, (1r,3r)-3-[(4-methyl-4H-1,2,4-triazol-3-yl)methyl]-3-(3-{1-oxo-6-[(4-{[(1r,4r)-4-({1-[6-(2,6-dioxopiperidin-3-yl)-7-methyl-5-oxo-5H,6H,7H-pyrrolo[3,4-b]pyridin-2-yl]piperidin-4-yl}oxy)cyclohexyl]methyl}piperazin-1-yl)methyl]-4-(trifluoromethyl)-2,3-dihydro-1H-isoindol-2-yl}phenyl)cyclobutane-1-carbonitrile]	< 5	< 5	35 to 70		35 to 70
Cn1cnnc1CC1(c2cccc(N3Cc4c(cc(CN5CCC(CN6CC7(C6)CN(c6ccc8c(c6)C(=O)N(C6CCC(=O)NC6=O)C8=O)C7)CC5)cc4C(F)(F)F)C3=O)c2)COC1 (stereo not drawn) [Example 31, 2-(2,6-dioxopiperidin-3-yl)-5-{6-[(1-{[2-(3-{3-[(4-methyl-4H-1,2,4-triazol-3-yl)methyl]oxetan-3-yl}phenyl)-3-oxo-7-(trifluoromethyl)-2,3-dihydro-1H-isoindol-5-yl]methyl}piperidin-4-yl)methyl]-2,6-diazaspiro[3.3]heptan-2-yl}-2,3-dihydro-1H-isoindole-1,3-dione]	> 500	> 500			
Cn1cnnc1CC1(c2cccc(N3Cc4c(cc(N5CC6(CCN(Cc7ccc8c(c7)C(=O)N(C7CCC(=O)NC7=O)C8=O)CC6)C5)cc4C(F)(F)F)C3=O)c2)COC1 (stereo not drawn) [Example 130, 2-(2,6-dioxopiperidin-3-yl)-5-({2-[2-(3-{3-[(4-methyl-4H-1,2,4-triazol-3-yl)methyl]oxetan-3-yl}phenyl)-3-oxo-7-(trifluoromethyl)-2,3-dihydro-1H-isoindol-5-yl]-2,7-diazaspiro[3.5]nonan-7-yl}methyl)-2,3-dihydro-1H-isoindole-1,3-dione]	> 500	> 500			
Cc1cc(N2CCC(CN3CCC4(C3)CN(c3cc5c(c(C(F)(F)F)c3)CN(c3cccc([C@]6(Cc7nncn7C)C[C@@H](C#N)C6)c3)C5=O)C4)CC2)c(F)c2c1C(=O)N(C1CCC(=O)NC1=O)C2 (stereo partly drawn) [Example 176, (1r,3r)-3-(3-{6-[6-({1-[2-(2,6-dioxopiperidin-3-yl)-4-fluoro-7-methyl-1-oxo-2,3-dihydro-1H-isoindol-5-yl]piperidin-4-yl}methyl)-2,6-diazaspiro[3.4]octan-2-yl]-1-oxo-4-(trifluoromethyl)-2,3-dihydro-1H-isoindol-2-yl}phenyl)-3-[(4-methyl-4H-1,2,4-triazol-3-yl)methyl]cyclobutane-1-carbonitrile]	5 to 50	< 5	35 to 70		35 to 70
Cn1cnnc1CC1(c2cccc(N3Cc4c(cc(N5CCC(CC6CCN(c7cc8c(cc7F)C(=O)N(C7CCC(=O)NC7=O)C8=O)CC6)CC5)cc4C(F)(F)F)C3=O)c2)COC1 (stereo not drawn) [Example 118, 2-(2,6-dioxopiperidin-3-yl)-5-fluoro-6-[4-({1-[2-(3-{3-[(4-methyl-4H-1,2,4-triazol-3-yl)methyl]oxetan-3-yl}phenyl)-3-oxo-7-(trifluoromethyl)-2,3-dihydro-1H-isoindol-5-yl]piperidin-4-yl}methyl)piperidin-1-yl]-2,3-dihydro-1H-isoindole-1,3-dione]	> 500	> 500			
CC(C)n1c(=O)n(C2CCC(=O)NC2=O)c2cccc(N3CCC(O[C@H]4CC[C@H](CN5CCCN(Cc6cc7c(c(C(F)(F)F)c6)CN(c6cccc([C@]8(Cc9nncn9C)C[C@@H](C#N)C8)c6)C7=O)CC5)CC4)CC3)c21 (stereo partly drawn) [Example 289, (1r,3r)-3-[(4-methyl-4H-1,2,4-triazol-3-yl)methyl]-3-(3-{1-oxo-6-[(4-{[(1r,4r)-4-({1-[1-(2,6-dioxopiperidin-3-yl)-2-oxo-3-(propan-2-yl)-2,3-dihydro-1H-1,3-benzodiazol-4-yl]piperidin-4-yl}oxy)cyclohexyl]methyl}-1,4-diazepan-1-yl)methyl]-4-(trifluoromethyl)-2,3-dihydro-1H-isoindol-2-yl}phenyl)cyclobutane-1-carbonitrile]	5 to 50	< 5	35 to 70	C (C ≤ 35)	

Reference: US20260184710A1, “CASITAS B-LINEAGE LYMPHOMA PROTOONCOGENE B (CBL-B) DEGRADING COMPOUNDS AND ASSOCIATED METHODS OF USE” (Arvinas Operations, Inc., priority 2022, published 2026)
